Source: ChEMBL document CHEMBL1201862, “PubChem BioAssay data set” (2004)
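1) Cells in 96-well plates. 2) Compound, 48 h, 5 concentrations. 3) Linear interpolation between surrounding doses. 4) Unreached endpoint = highest concentration. At the GI50, growth is halved.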 The source made the active and inactive calls. Cut-off read from the data, not from the text of the source: active = GI50 up to about 1.1 µM and inactive = higher.

Columns and labels:
Experiment in all cases: DTP human tumour cell line panel, 48 h
CAKI-1 = test system: CAKI-1
HCC 2998 = test system: HCC 2998
HCT-116 = test system: HCT-116
HOP-62 = test system: HOP-62
HT-29 = test system: HT-29
K562 = test system: K562
LXFL 529 = test system: LXFL 529
M14 = test system: M14
Malme-3M = test system: Malme-3M
OVCAR-5 = test system: OVCAR-5
RXF 393 = test system: RXF 393
SF-268 = test system: SF-268
SK-MEL-2 = test system: SK-MEL-2
SN12C = test system: SN12C
SNB-19 = test system: SNB-19
UACC-62 = test system: UACC-62
CCRF-CEM = test system: CCRF-CEM
MOLT-4 = test system: MOLT-4
RPMI-8226 = test system: RPMI-8226
BT-549 = test system: BT-549

Structure (SMILES)	GI50 (CAKI-1)	GI50 (HCC 2998)	GI50 (HCT-116)	GI50 (HOP-62)	GI50 (HT-29)	GI50 (K562)	GI50 (LXFL 529)	GI50 (M14)	GI50 (Malme-3M)	GI50 (OVCAR-5)	GI50 (RXF 393)	GI50 (SF-268)	GI50 (SK-MEL-2)	GI50 (SN12C)	GI50 (SNB-19)	GI50 (UACC-62)	GI50 (CCRF-CEM)	GI50 (MOLT-4)	GI50 (RPMI-8226)	GI50 (BT-549)
CN(C)c1ccc(/C=c2\sc3nc4ccccc4n3c2=O)cc1	> 100 µM (inactive)	> 100 µM (inactive)	> 100 µM (inactive)	> 100 µM (inactive)	> 100 µM (inactive)	> 100 µM (inactive)	> 100 µM (inactive)	> 100 µM (inactive)	> 100 µM (inactive)	> 100 µM (inactive)	77.6 µM (inactive)	> 100 µM (inactive)	> 100 µM (inactive)	> 100 µM (inactive)	> 100 µM (inactive)	> 100 µM (inactive)				
CCCCCCCCCCCCCCCCOC(=O)C(C(=O)OCCCCCCCCCCCCCCCC)[N+](C)(C)CCOC(C)=O	12.6 µM (inactive)	11.4 µM (inactive)	16.4 µM (inactive)	10.9 µM (inactive)	11.1 µM (inactive)	19.5 µM (inactive)	16.1 µM (inactive)	19.7 µM (inactive)	21.2 µM (inactive)	20.8 µM (inactive)	2.99 µM (inactive)	17.9 µM (inactive)	20.1 µM (inactive)	18.4 µM (inactive)	13.4 µM (inactive)	21.5 µM (inactive)	10.3 µM (inactive)			
C=CCN(N=O)C(=O)ON1C(=O)CCC1=O		> 100 µM (inactive)	> 100 µM (inactive)	> 100 µM (inactive)	> 100 µM (inactive)	> 100 µM (inactive)	> 100 µM (inactive)	> 100 µM (inactive)	> 100 µM (inactive)	0.0681 µM (active)	> 100 µM (inactive)	> 100 µM (inactive)	> 100 µM (inactive)	> 100 µM (inactive)	> 100 µM (inactive)	> 100 µM (inactive)	85.9 µM (inactive)	> 100 µM (inactive)	> 100 µM (inactive)	
Cn1nc(-c2ccccc2)c2c(/C=C/c3ccc(F)cc3)onc2c1=O	27.4 µM (inactive)		9.59 µM (inactive)	> 100 µM (inactive)	29.3 µM (inactive)	17.3 µM (inactive)	> 100 µM (inactive)	> 100 µM (inactive)			23.3 µM (inactive)	> 100 µM (inactive)		88.1 µM (inactive)		> 100 µM (inactive)	> 100 µM (inactive)	> 100 µM (inactive)	> 100 µM (inactive)	
Cn1c(=O)c(C(c2ccc([N+](=O)[O-])cc2)c2c(O)c3ccccc3n(C)c2=O)cc2ccccc21 (stereo not drawn)	47.8 µM (inactive)	> 100 µM (inactive)	44.2 µM (inactive)	27.7 µM (inactive)	44.8 µM (inactive)	> 100 µM (inactive)	42.2 µM (inactive)	37.8 µM (inactive)	26.7 µM (inactive)	28.4 µM (inactive)	26.4 µM (inactive)	53.1 µM (inactive)	59.6 µM (inactive)	57.7 µM (inactive)	40.3 µM (inactive)	19.2 µM (inactive)		41.7 µM (inactive)	41.8 µM (inactive)	
Cc1cc(Cl)cc2c1NC(=O)C2=O.O=C(c1ccccc1)C(F)(F)F	39.3 µM (inactive)	> 100 µM (inactive)	59.8 µM (inactive)	> 100 µM (inactive)	78 µM (inactive)	32.4 µM (inactive)	56.1 µM (inactive)	67 µM (inactive)	45.6 µM (inactive)	> 100 µM (inactive)	73.3 µM (inactive)	> 100 µM (inactive)	36 µM (inactive)	54 µM (inactive)	72.4 µM (inactive)	19.9 µM (inactive)	17.2 µM (inactive)	20.1 µM (inactive)		
COC(=O)[C@@H]1C(=O)O[C@@H](c2ccc3c(c2)OCO3)[C@@H]1C(=O)OC.COC(=O)[C@H]1C(=O)O[C@@H](c2ccc3c(c2)OCO3)[C@@H]1C(=O)OC	> 100 µM (inactive)	> 100 µM (inactive)	> 100 µM (inactive)	> 100 µM (inactive)	> 100 µM (inactive)	> 100 µM (inactive)	> 100 µM (inactive)	> 100 µM (inactive)	> 100 µM (inactive)	> 100 µM (inactive)	> 100 µM (inactive)	> 100 µM (inactive)		> 100 µM (inactive)	> 100 µM (inactive)	> 100 µM (inactive)	> 100 µM (inactive)	> 100 µM (inactive)	> 100 µM (inactive)	
Nc1nc(Cl)cc(Nc2cc(Cl)cc(Cl)c2)n1	23.4 µM (inactive)	18.7 µM (inactive)	17.5 µM (inactive)	29.2 µM (inactive)	17 µM (inactive)	30.8 µM (inactive)		19.3 µM (inactive)	22.3 µM (inactive)	31.9 µM (inactive)	21.1 µM (inactive)	20.8 µM (inactive)	18.7 µM (inactive)	22 µM (inactive)	23.4 µM (inactive)	18.4 µM (inactive)	28.5 µM (inactive)	22.3 µM (inactive)	33 µM (inactive)	22.1 µM (inactive)
